# In patent EP0188781A1, “1-Oxa-1-dethia-cephalosporin compounds and antibacterial agent comprising the same” (Merck & Co., Inc., priority 1984, dated 1986):
# Experiments:
# [1] = system: Escherichia coli NIHJ JC-2; experiment: Minimum inhibitory concentration (MIC) in vitro, antibacterial spectrum; format: cell-based
# [2] = system: Streptococcus faecalis W-74; experiment: as above; format: cell-based
# [3] = system: Streptococcus faecalis ATCC8043; experiment: as above; format: cell-based
# Pseudomonas aeruginosa = experiment: Antibacterial activity in vitro, summary in words; format: cell-based; conditions: statement in words on Table 1
# Source text: Besides, the compounds of Examples 1, 2, 4, 5 and 7 advantageously are also effective against Pseudomonas aeruginosa.
# [4] = system: Serratia marcescens No. 2; experiment: Minimum inhibitory concentration (MIC) in vitro, antibacterial spectrum; format: cell-based
# [5] = system: Pseudomonas aeruginosa MB3829; experiment: as above; format: cell-based
# [6] = system: Salmonella typhimurium LT-2; experiment: as above; format: cell-based
# Proteus vulgaris GN76 = experiment: as above; format: cell-based
# [7] = system: Pseudomonas aeruginosa E-2; experiment: as above; format: cell-based
# Escherichia coli GN206 = experiment: as above; format: cell-based
# Proteus rettgeri GN624 = experiment: as above; format: cell-based
# [8] = system: Streptococcus faecalis W-73; experiment: as above; format: cell-based
# [9] = system: Staphylococcus aureus 209 P JC-1; experiment: as above; format: cell-based
# [10] = Concentration in serum after subcutaneous administration to mice, bioassay with Escherichia coli; format: in vivo; conditions: mouse, sc, 25 mg/kg subcutaneously
# Source text: For the serum which was separated from the blood samples, the concentration in the serum of the compound administered was bioassayed using Escherichia coli as assay microorganism.
# Proteus mirabilis GN79 = experiment: Minimum inhibitory concentration (MIC) in vitro, antibacterial spectrum; format: cell-based
# [11] = system: Streptococcus faecalis W-75; experiment: as above; format: cell-based
# [12] = system: Staphylococcus aureus Smith; experiment: as above; format: cell-based
# [13] = system: Pseudomonas aeruginosa MB3833; experiment: as above; format: cell-based
# Streptococcus faecalis = experiment: Antibacterial activity in vitro, summary in words; format: cell-based; conditions: statement in words on Table 1
Minimum inhibitory concentration (MIC) [1],Minimum inhibitory concentration (MIC) [2],Minimum inhibitory concentration (MIC) [3],Minimum inhibitory concentration (MIC) [4],Minimum inhibitory concentration (MIC) [5],Minimum inhibitory concentration (MIC) [6],Minimum inhibitory concentration (MIC) (Proteus vulgaris GN76),Minimum inhibitory concentration (MIC) [7],Minimum inhibitory concentration (MIC) (Escherichia coli GN206),Minimum inhibitory concentration (MIC) (Proteus rettgeri GN624),Minimum inhibitory concentration (MIC) [8],Minimum inhibitory concentration (MIC) [9],Minimum inhibitory concentration (MIC) (Proteus mirabilis GN79),Minimum inhibitory concentration (MIC) [11],Minimum inhibitory concentration (MIC) [12],Minimum inhibitory concentration (MIC) [13],Compound,effective against Pseudomonas aeruginosa (Pseudomonas aeruginosa),also measured
0.10,25,0.78,0.20,12.5,0.10,0.025,25,1.56,0.39,100,0.78,50,12.5,1.56,12.5,"CCN1CCN(C(=O)NC(C(=O)N[C@@H]2C(=O)N3C(C(=O)O)=C(CSc4nc(=O)c(O)nn4C)CO[C@H]23)c2csc(N)n2)C(=O)C1=O (single isomer, unassigned) [Compound No. 7]",effective,concentration at 0.5 h ([10]; 1/2 hour): 32000 ng/mL; concentration at 0.25 h ([10]; 1/4 hour): 34000 ng/mL; concentration at 5 min ([10]; 1/12 hour): 25000 ng/mL; concentration at 1 h ([10]; 1 hour): 13000 ng/mL
0.10,100,25,0.10,12.5,0.05,0.20,6.25,0.39,0.05,100,3.13,0.10,100,3.13,6.25,"CO[C@@]1(NC(=O)C(C(=O)O)c2ccc(O)cc2)C(=O)N2C(C(=O)O)=C(CSc3nnnn3C)CO[C@@H]21 (some centres unmarked) [Latamoxef, reference compound]",,
0.10,50,12.5,0.20,50,0.025,50,100,1.56,0.10,100,0.78,0.10,6.24,1.56,100,"C[C@@H]1O[C@@H]2[C@H](NC(=O)C(NC=O)c3csc(N)n3)C(=O)N2C(C(=O)O)=C1CSc1nc(=O)c(O)nn1C (stereo partly drawn) [Compound No. 6, (6R,7R)-7-[2-(2-aminothiazol-4-yl)-2-(form-amido)acetamido]-(2S)-2-methyl-3-(2,5-dihydro-6-hydroxy-2-methyl-5-oxo-1,2,4-triazin-3-yl) thiomethyl-l-oxa-l-dethia-ceph-3-em-4-carboxylic acid]",,effective against Streptococcus faecalis (Streptococcus faecalis): effective
0.05,50,25,0.20,100,0.025,100,100,1.56,0.10,100,1.56,0.10,6.24,1.56,100,"Cn1nc(O)c(=O)nc1SCC1=C(C(=O)O)N2C(=O)[C@@H](NC(=O)C(NC=O)c3csc(N)n3)[C@H]2OC1 (stereo partly drawn) [Compound No. 8, (6R,7R)-7-[2-(2-aminothiazol-4-yl)-2-(form-amido)acetamido]-3-(2,5-dihydro-6-hydroxy-2-methyl-5-oxo-1,2,4-triazin-3-yl)thiomethyl-l-oxa-l-dethia-ceph-3-em-4-carboxylic acid]",,

# Further lines, the compound ahead of its results:
Compound,Minimum inhibitory concentration (MIC) [1],Minimum inhibitory concentration (MIC) [2],Minimum inhibitory concentration (MIC) [3],Minimum inhibitory concentration (MIC) [4],Minimum inhibitory concentration (MIC) [5],Minimum inhibitory concentration (MIC) [6],Minimum inhibitory concentration (MIC) (Proteus vulgaris GN76),Minimum inhibitory concentration (MIC) [7],Minimum inhibitory concentration (MIC) (Escherichia coli GN206),Minimum inhibitory concentration (MIC) (Proteus rettgeri GN624),Minimum inhibitory concentration (MIC) [8],Minimum inhibitory concentration (MIC) [9],Minimum inhibitory concentration (MIC) (Proteus mirabilis GN79),Minimum inhibitory concentration (MIC) [11],Minimum inhibitory concentration (MIC) [12],Minimum inhibitory concentration (MIC) [13],effective against Pseudomonas aeruginosa (Pseudomonas aeruginosa),also measured
"CCO/N=C(\C(=O)N[C@@H]1C(=O)N2C(C(=O)O)=C(CSc3nc(=O)c(O)nn3C)CO[C@H]12)c1csc(N)n1 [Compound No. 4, (6R,7R)-7-[(Z)-2-(2-aminothiazol-4-yl)-2-(ethoxyimino)acetamido]-3-(2,5-dihydro-6-hydroxy-2-methyl-5-oxo-l,2,4-triazin-3-yl) thiomethyl-l-oxa-l-dethia-ceph-3-em-4-carboxylic acid]",0.10,,25,,,0.10,0.05,25,1.56,0.39,100,0.78,0.025,0.20,1.56,6.25,effective,
"CCO/N=C(\C(=O)N[C@@H]1C(=O)N2C(C(=O)O)=C(CSc3nc(=O)c(O)nn3C)[C@H](C)O[C@H]12)c1csc(N)n1 [Compound No. 2, (6R,7R)-7-[(z)-2-(2-aminothiazol-4-yl)-2-(ethoxyimino)acetamido]-(2S)-2-methyl-3-(2,5-dihydro-6-hydroxy-2-methyl-5-oxo-1,2,4-triazin-3-yl)thiomethyl-l-oxa-l-dethia-ceph-3-em-4-carboxylic acid]",0.39,6.25,1.56,0.39,6.25,0.39,0.20,25,0.78,0.78,50,1.56,0.20,0.20,1.56,12.5,effective,effective against Streptococcus faecalis (Streptococcus faecalis): effective
"CO/N=C(\C(=O)N[C@@H]1C(=O)N2C(C(=O)O)=C(CSc3nc(=O)c(=O)[nH]n3C)CS[C@H]12)c1csc(N)n1 [Ceftriaxone, reference compound]",0.10,100,3.13,0.10,12.5,0.05,0.025,100,0.78,0.39,100,1.56,0.025,1.56,3.13,50,,
"CO/N=C(\C(=O)N[C@@H]1C(=O)N2C(C(=O)O)=C(CSc3nc(=O)c(O)nn3C)CO[C@H]12)c1csc(N)n1 [Compound No. 3, (6R,7R)-7-[(Z)-2-(2-aminothiazol-4-yl)-2-(methoxyimino)acetamido]-3-(2,5-dihydro-6-hydroxy-2-methyl-5-oxo-1,2,4-triazin-3-yl) thiomethyl-l-oxa-l-dethia-ceph-3-em-4-carboxylic acid]",0.10,50,12.5,0.39,12.5,0.05,0.10,50,3.13,0.39,50,0.78,0.05,0.39,0.78,25,,
